Test results published in the NIST ThermoML archive (doi:10.1021/je800110r).

Settings: 283.15 K, Liquid, Vibrating tube method

CCCCCCCCCC [decane]
Settings	mass density [kg/m3]
23237 kPa	753.1
23257 kPa	753.2
23291 kPa	753.1
23311 kPa	753.2
23338 kPa	753.1
23363 kPa	753.2
23386 kPa	753.2
23410 kPa	753.2
23441 kPa	753.2
23462 kPa	753.2
23489 kPa	753.3
23513 kPa	753.1
23530 kPa	753.2
23558 kPa	753.3
23590 kPa	753.3
23611 kPa	753.3
23638 kPa	753.3
23667 kPa	753.4
23689 kPa	753.3
23714 kPa	753.3
23743 kPa	753.4
23766 kPa	753.4
23786 kPa	753.5
23812 kPa	753.4
23835 kPa	753.5
23855 kPa	753.4
23875 kPa	753.4
23904 kPa	753.5
23928 kPa	753.5
23957 kPa	753.5
23977 kPa	753.6
24007 kPa	753.5
24024 kPa	753.6
24061 kPa	753.7
24135 kPa	753.6
24155 kPa	753.6
24179 kPa	753.7
24242 kPa	753.6
24265 kPa	753.7
24286 kPa	753.7
24309 kPa	753.7
24330 kPa	753.8
24362 kPa	753.7
24389 kPa	753.7
24410 kPa	753.7
24434 kPa	753.8
24452 kPa	753.9
24490 kPa	753.9
24511 kPa	753.7
24533 kPa	753.8
24564 kPa	753.9
24596 kPa	753.8
24618 kPa	753.9
24642 kPa	753.8
24660 kPa	753.9
24682 kPa	753.9
24710 kPa	754
24739 kPa	753.9
24764 kPa	753.9
24796 kPa	754
24819 kPa	754
24845 kPa	754.1
24871 kPa	754.1
24904 kPa	754.2
24924 kPa	754.1
24954 kPa	754.2
24981 kPa	754.1
25004 kPa	754.2
25025 kPa	754.1
25048 kPa	754
25068 kPa	754.2
25099 kPa	754.3
25121 kPa	754.2
25141 kPa	754.3
25168 kPa	754.2
25199 kPa	754.3
25220 kPa	754.3
25248 kPa	754.2
25268 kPa	754.3
25286 kPa	754.3
25313 kPa	754.2
25335 kPa	754.3
25366 kPa	754.4
25398 kPa	754.5
25416 kPa	754.3
25477 kPa	754.4
25498 kPa	754.4
25523 kPa	754.5
25544 kPa	754.5
25566 kPa	754.5
25591 kPa	754.5
25620 kPa	754.5
25645 kPa	754.5
25669 kPa	754.5
25695 kPa	754.6
25712 kPa	754.5
25739 kPa	754.7
25768 kPa	754.7
25788 kPa	754.7
25818 kPa	754.6
25845 kPa	754.4
25865 kPa	754.6
25888 kPa	754.7
25908 kPa	754.6
25939 kPa	754.7
25967 kPa	754.7
25992 kPa	754.7
26022 kPa	754.7
26046 kPa	754.8
26065 kPa	754.7
26099 kPa	754.8
26119 kPa	754.9
26136 kPa	754.7
26166 kPa	754.8
26197 kPa	754.7
26220 kPa	754.9
26245 kPa	754.8
26273 kPa	754.8
26300 kPa	754.8
26324 kPa	754.9
26341 kPa	755
26368 kPa	754.9
26389 kPa	755
26421 kPa	755
26445 kPa	755
26466 kPa	755
26490 kPa	755
26510 kPa	755.1
26538 kPa	755.1
26567 kPa	755.1
26591 kPa	755
26624 kPa	755.2
26652 kPa	755.2
26677 kPa	755.2
26694 kPa	755.2
26726 kPa	755.2
26754 kPa	755.3
